One test concerns S. aureus. Put plainly: MIC S. aureus (standard MIC assay modified by inclusion of cyclodextrin). The conditions noted are these: Staphylococcus aureus. Type of test: cell-based. The procedure: (§1) Compounds of the present invention were assayed for antibacterial activity against a range of pathogenic organisms (strains of S aureus, S pneumoniae, E faecalis, H influenzae and M catarrhalis) in a standard MIC assay modified by the inclusion of cyclodextrin, to assist with solubility.

Another test concerns S. pneumo. Put plainly: MIC S. pneumo (standard MIC assay modified by inclusion of cyclodextrin). The format is cell-based. The conditions noted are these: Streptococcus pneumoniae. The procedure: as §1
Another test deals with H. influenzae. Put plainly: MIC H. influenzae (standard MIC assay modified by inclusion of cyclodextrin). Type of test: cell-based. Conditions: Haemophilus influenzae. On the procedure:
as §1

In test [1] the target is T1, recombinant H. influenzae MRS (Haemophilus influenzae, UniProt P43828).
T1 construct: made in house
Put plainly: Enzyme Inhibition (H. influenzae MRS) aminoacylation assay. Type of test: biochemical. Conditions: read-out: IC50 against H. influenzae MRS. The procedure: 2. Enzyme Inhibition (H. influenzae MRS)—aminoacylation assay
Compounds of the present invention may be assayed for their ability to inhibit the enzyme methionyl tRNA synthetase (MRS), using recombinant H. influenzae MRS(R. D. Fleischmann et al., Science, 269, 496–512, 1995), as follows:
The reaction is started by adding 20 μl appropriately diluted pure enzyme (pre-incubated with inhibitor) to 25 μl reaction mix for 10 min at room temperature. The reaction is terminated by the addition of 150 μl 167 mM sodium citrate, pH 2.15 containing phosphodiesterase (PDE) SPA beads (0.833 mg/ml). The binding of the radiolabelled product to the bead brings the isotope into close enough proximity to allow radiation from the tritium to excite the scintillant within the bead. Any unbound radiolabel is not close enough to the scintillant to allow this energy transfer, so no signal is generated. Following termination of the reaction, plates are spun at 2500 rpm for 5 min in a Mistral 3000E plate centrifuge (or alternatively allowed to stand for 1 hour). The assay is conducted in 96-well Optiplates (Packard). Plates are counted on a TopCount. (Packard 96 well counter).
Mixed E. coli MRE 600 tRNA and ATP were purchased from Boehringer-Mannheim, L-[methyl-^3H]methionine and phosphodiesterase scintillation proximity (SPA) beads from Amersham Pharmacia Biotech and other reagents from Sigma.

The test system of test [2] is S. aureus, S. pneumoniae, and E. faecalis. Put plainly: MIC against some strains of gram positive pathogens. Type of test: cell-based. The procedure: as §1
For test [3], the system named is M catarrhalis and H. influenzae. Put plainly: MIC against some strains of gram negative pathogens. Conditions: Haemophilus influenzae. Type of test: cell-based. The procedure: as §1

In brackets after ≈: the same amount, converted by molar mass.

T1 sequence (P43828 whole entry): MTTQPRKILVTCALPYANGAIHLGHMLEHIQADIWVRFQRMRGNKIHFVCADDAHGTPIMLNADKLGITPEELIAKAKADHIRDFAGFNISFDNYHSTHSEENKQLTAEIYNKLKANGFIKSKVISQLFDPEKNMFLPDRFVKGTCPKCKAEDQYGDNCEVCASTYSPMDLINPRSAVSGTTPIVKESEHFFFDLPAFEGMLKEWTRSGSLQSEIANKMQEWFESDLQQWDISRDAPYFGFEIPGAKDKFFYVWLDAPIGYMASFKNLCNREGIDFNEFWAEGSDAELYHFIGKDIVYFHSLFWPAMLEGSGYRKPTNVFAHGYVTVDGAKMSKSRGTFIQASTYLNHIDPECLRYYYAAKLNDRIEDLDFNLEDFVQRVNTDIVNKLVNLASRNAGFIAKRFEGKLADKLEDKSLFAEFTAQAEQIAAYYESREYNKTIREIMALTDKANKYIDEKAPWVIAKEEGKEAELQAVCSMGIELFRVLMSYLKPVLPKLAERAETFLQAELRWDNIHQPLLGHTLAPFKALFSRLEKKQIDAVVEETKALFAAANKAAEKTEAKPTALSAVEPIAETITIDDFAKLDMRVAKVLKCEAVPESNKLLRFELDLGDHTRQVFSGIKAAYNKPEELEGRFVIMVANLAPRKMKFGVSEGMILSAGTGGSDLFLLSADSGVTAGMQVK

With `C=C(F)c1sc(CNCCCNc2nc3ncccc3[nH]2)c(C)c1Br` [Example 17, N-(4-bromo-5-(1-fluorovinyl)-3-methylthiophen-2-ylmethyl)-N′-(1H-imidazo[4,5-b]pyridin-2-yl)-propane-1,3-diamine], the MIC against S. aureus was 0.06 µg/mL (≈ 0.141 µM); in the test with S. pneumo, 0.25 µg/mL (≈ 0.589 µM); with H. influenzae, 64 µg/mL (≈ 151 µM); in test [2], 0.06 to 0.5 µg/mL (≈ 0.141 to 1.18 µM). The concentration for half-maximal inhibition (IC50) in test [1] was at most 200 nM.

Turning to `Cc1c(CNCCCNc2nc3cscc3[nH]2)sc(Br)c1Br` [Example 18, N-(4,5-Dibromo-3-methylthiophen-2-ylmethyl)-N′-(1H-thieno[3,4-d]imidazol-2-yl)propane-1,3-diamine], the MIC was 0.13 µg/mL (≈ 0.28 µM) in the test on S. aureus; 0.25 µg/mL (≈ 0.539 µM) against S. pneumo; 8 µg/mL (≈ 17.2 µM) in the test with H. influenzae; 0.06 to 0.5 µg/mL (≈ 0.129 to 1.08 µM) in test [2]; 0.13 to 8 µg/mL (≈ 0.28 to 17.2 µM) in test [3]. The concentration for half-maximal inhibition (IC50) in test [1] is at most 200 nM.

On to `C=C(F)c1sc(CNCCCNc2nc3cscc3[nH]2)c(C)c1Br` [Example 21, N-(4-bromo-5-(1-fluorovinyl)-3-methylthiophen-2-ylmethyl)-N′-(1H-thieno[3,4-d]imidazol-2-yl)propane-1,3-diamine], for which the MIC in the test with S. aureus was 0.06 µg/mL (≈ 0.14 µM); against S. pneumo, 0.25 µg/mL (≈ 0.582 µM); in the test with H. influenzae, 8 µg/mL (≈ 18.6 µM); in test [2] it was 0.06 to 0.5 µg/mL (≈ 0.14 to 1.16 µM); in test [3] it was 0.13 to 8 µg/mL (≈ 0.303 to 18.6 µM). In addition, the IC50 in test [1] is at most 200 nM.

With `C=C(F)c1sc(CNCCCNc2nc3ccccc3[nH]2)c(C)c1Br` [Example 22, N-(4-bromo-5-(1-fluorovinyl)-3-methylthiophen-2-ylmethyl)-N′-(1H-benzimidazole)propane-1,3-diamine], the MIC with S. aureus was 0.13 µg/mL (≈ 0.307 µM); with S. pneumo, 0.5 µg/mL (≈ 1.18 µM); in the test on H. influenzae, 16 µg/mL (≈ 37.8 µM); in test [2], 0.06 to 0.5 µg/mL (≈ 0.142 to 1.18 µM). The half-inhibitory concentration (IC50) in test [1] is at most 200 nM.

On to `Cc1c(CNCCCNc2nc(=O)c3sccc3[nH]2)sc(Br)c1Br` [Example 25, N-(4,5-Dibromo-3-methylthiophen-2-ylmethyl)-N′-(1H-thieno [3,2-d]pyrimidin-4-one)propane-1,3-diamine], for which the MIC was 0.5 µg/mL (≈ 1.02 µM) in the test on S. aureus, 2 µg/mL (≈ 4.06 µM) in the test on S. pneumo, 32 µg/mL (≈ 65 µM) against H. influenzae and 0.06 to 0.5 µg/mL (≈ 0.122 to 1.02 µM) in test [2]. Moreover, the concentration for half-maximal inhibition (IC50) in test [1] is at most 200 nM.

Broadly, the IC50 is the point on the concentration scale where inhibition reaches its midpoint.

(Values after patent US7030137B2, “Substituted thiophenes with antibacterial activity” (Replidyne, Inc., priority 2003, dated 2006).)
